{
  "source": "PubChem BioAssay AID1259407",
  "about": "(Chemical Carcinogenesis Research Information System (CCRIS), 2018)",
  "tested_on": "CCRIS mutagenicity, Ames/micronucleus/aberration tests",
  "assay": "CCRIS mutagenicity studies",
  "key": {"[1]": {"conditions": "Test System: AMES SALMONELLA TYPHIMURIUM, Strain/Indicator: TA100, Metabolic Activation: NONE, Method: STANDARD PLATE"}},
  "note": "Activity calls are given as the source filed them. How the calls were made is not given here.",
  "data": [
    {"molecule": "CC(=O)N(O)c1ccc(Oc2ccccc2)cc1", "values": [
      {"measurement": "mutagenic call", "setting": "Test System: AMES SALMONELLA TYPHIMURIUM, Strain/Indicator: TA100, Metabolic Activation: GUINEA PIG, LIVER, S-9, KANECLOR 500, Method: STANDARD PLATE", "result": "active; positive"},
      {"measurement": "mutagenic call", "setting": "[1]", "result": "inactive; negative"},
      {"measurement": "mutagenic call", "setting": "Test System: AMES SALMONELLA TYPHIMURIUM, Strain/Indicator: TA100, Metabolic Activation: RAT, LIVER, S-9, KANECLOR 500, Method: STANDARD PLATE", "result": "active; positive"}
    ]},
    {"molecule": "CC(=O)CN(C)N=O", "values": [
      {"measurement": "mutagenic call", "setting": "Test System: AMES SALMONELLA TYPHIMURIUM, Strain/Indicator: TA100, Metabolic Activation: HAMSTER, LIVER, S-9, 3-METHYLCHOLANTHRENE, Method: PREINCUBATION", "result": "active; positive"},
      {"measurement": "mutagenic call", "setting": "Test System: AMES SALMONELLA TYPHIMURIUM, Strain/Indicator: TA100, Metabolic Activation: HAMSTER, LIVER, S-9, PHENOBARBITAL, Method: PREINCUBATION", "result": "active; positive"},
      {"measurement": "mutagenic call", "setting": "Test System: AMES SALMONELLA TYPHIMURIUM, Strain/Indicator: TA100, Metabolic Activation: HUMAN, LIVER, S-9, Method: PREINCUBATION", "result": "inactive; negative"},
      {"measurement": "mutagenic call", "setting": "Test System: AMES SALMONELLA TYPHIMURIUM, Strain/Indicator: TA100, Metabolic Activation: MONKEY, LIVER, S-9, Method: PREINCUBATION", "result": "active; positive"},
      {"measurement": "mutagenic call", "setting": "Test System: AMES SALMONELLA TYPHIMURIUM, Strain/Indicator: TA100, Metabolic Activation: MOUSE, LIVER, S-9, 3-METHYLCHOLANTHRENE, Method: PREINCUBATION", "result": "active; positive"},
      {"measurement": "mutagenic call", "setting": "Test System: AMES SALMONELLA TYPHIMURIUM, Strain/Indicator: TA100, Metabolic Activation: MOUSE, LIVER, S-9, PHENOBARBITAL, Method: PREINCUBATION", "result": "active; positive"},
      {"measurement": "mutagenic call", "setting": "Test System: AMES SALMONELLA TYPHIMURIUM, Strain/Indicator: TA100, Metabolic Activation: MOUSE, LIVER, S-9, Method: PREINCUBATION", "result": "active; positive"},
      {"measurement": "mutagenic call", "setting": "Test System: AMES SALMONELLA TYPHIMURIUM, Strain/Indicator: TA100, Metabolic Activation: NONE, Method: PREINCUBATION", "result": "inactive; negative"},
      {"measurement": "mutagenic call", "setting": "Test System: AMES SALMONELLA TYPHIMURIUM, Strain/Indicator: TA100, Metabolic Activation: RABBIT, LIVER, S-9, Method: PREINCUBATION", "result": "active; positive"},
      {"measurement": "mutagenic call", "setting": "Test System: AMES SALMONELLA TYPHIMURIUM, Strain/Indicator: TA100, Metabolic Activation: RAT, LIVER, CYTOSOL, PCB, Method: PREINCUBATION", "result": "inactive; negative"},
      {"measurement": "mutagenic call", "setting": "Test System: AMES SALMONELLA TYPHIMURIUM, Strain/Indicator: TA100, Metabolic Activation: RAT, LIVER, MICROSOMES AND CYTOSOL, PCB, Method: PREINCUBATION", "result": "active; positive"},
      {"measurement": "mutagenic call", "setting": "Test System: AMES SALMONELLA TYPHIMURIUM, Strain/Indicator: TA100, Metabolic Activation: RAT, LIVER, MICROSOMES AND G6PDH, PCB, Method: PREINCUBATION", "result": "active; positive"},
      {"measurement": "mutagenic call", "setting": "Test System: AMES SALMONELLA TYPHIMURIUM, Strain/Indicator: TA100, Metabolic Activation: RAT, LIVER, MICROSOMES, PCB, Method: PREINCUBATION", "result": "active; positive"},
      {"measurement": "mutagenic call", "setting": "Test System: AMES SALMONELLA TYPHIMURIUM, Strain/Indicator: TA100, Metabolic Activation: RAT, LIVER, S-9 (HEATED), PCB, Method: PREINCUBATION", "result": "inactive; negative"},
      {"measurement": "mutagenic call", "setting": "Test System: AMES SALMONELLA TYPHIMURIUM, Strain/Indicator: TA100, Metabolic Activation: RAT, LIVER, S-9, 3-METHYLCHOLANTHRENE, Method: PREINCUBATION", "result": "inactive; negative"},
      {"measurement": "mutagenic call", "setting": "Test System: AMES SALMONELLA TYPHIMURIUM, Strain/Indicator: TA100, Metabolic Activation: RAT, LIVER, S-9, PCB, Method: PREINCUBATION", "result": "active; positive"},
      {"measurement": "mutagenic call", "setting": "Test System: AMES SALMONELLA TYPHIMURIUM, Strain/Indicator: TA100, Metabolic Activation: RAT, LIVER, S-9, PHENOBARBITAL, Method: PREINCUBATION", "result": "active; positive"},
      {"measurement": "mutagenic call", "setting": "Test System: AMES SALMONELLA TYPHIMURIUM, Strain/Indicator: TA100, Metabolic Activation: RAT, LIVER, S-9 WITHOUT NADP+, PCB, Method: PREINCUBATION", "result": "inactive; negative"},
      {"measurement": "mutagenic call", "setting": "Test System: AMES SALMONELLA TYPHIMURIUM, Strain/Indicator: TA100, Method: PREINCUBATION", "result": "active; positive"},
      {"measurement": "mutagenic call", "setting": "Test System: CHINESE HAMSTER V-79, Strain/Indicator: V-79/OUABAIN, Metabolic Activation: HAMSTER, HEPATOCYTES, Method: CELL-MEDIATED", "result": "active; positive"}
    ]},
    {"molecule": "[Cl][Sn]([Cl])([Cl])[Cl]", "values": [
      {"measurement": "mutagenic call", "setting": "Test System: AMES SALMONELLA TYPHIMURIUM, Strain/Indicator: TA98, Metabolic Activation: NONE, Method: SUSPENSION/PLATE", "result": "inactive; negative"},
      {"measurement": "mutagenic call", "setting": "Test System: AMES SALMONELLA TYPHIMURIUM, Strain/Indicator: TA100, Metabolic Activation: NONE, Method: SUSPENSION/PLATE", "result": "inactive; negative"}
    ]},
    {"molecule": "[Cl][Cd][Cl]", "values": [
      {"measurement": "mutagenic call", "setting": "End Point: IN VITRO MICRONUCLEUS, Test System: CHL/IU CELLS, Metabolic Activation: NONE", "result": "active; positive"},
      {"measurement": "mutagenic call", "setting": "End Point: IN VITRO MICRONUCLEUS, Test System: HAMSTER V79 CELLS, Metabolic Activation: NONE", "result": "active; positive"},
      {"measurement": "mutagenic call", "setting": "End Point: IN VITRO MICRONUCLEUS, Test System: HUMAN PERIPHERAL LYMPHOCYTES, Metabolic Activation: NONE, Method: FISH (CENTROMERIC SIGNAL CONTENT)", "result": "active; positive"},
      {"measurement": "mutagenic call", "setting": "Test System: AMES SALMONELLA TYPHIMURIUM, Strain/Indicator: TA97, Metabolic Activation: NONE, Method: STANDARD PLATE", "result": "inactive; negative"},
      {"measurement": "mutagenic call", "setting": "Test System: AMES SALMONELLA TYPHIMURIUM, Strain/Indicator: TA97, Metabolic Activation: RAT, LIVER, S-9, AROCLOR 1254, Method: STANDARD PLATE", "result": "inactive; negative"},
      {"measurement": "mutagenic call", "setting": "Test System: AMES SALMONELLA TYPHIMURIUM, Strain/Indicator: TA98, Metabolic Activation: NONE, Method: STANDARD PLATE", "result": "inactive; negative"},
      {"measurement": "mutagenic call", "setting": "Test System: AMES SALMONELLA TYPHIMURIUM, Strain/Indicator: TA98, Metabolic Activation: RAT, LIVER, S-9, AROCLOR 1254, Method: STANDARD PLATE", "result": "inactive; negative"},
      {"measurement": "mutagenic call", "setting": "Test System: AMES SALMONELLA TYPHIMURIUM, Strain/Indicator: TA98, Metabolic Activation: S-9, Method: STANDARD PLATE", "result": "inactive; negative"},
      {"measurement": "mutagenic call", "setting": "[1]", "result": "inactive; negative"},
      {"measurement": "mutagenic call", "setting": "Test System: AMES SALMONELLA TYPHIMURIUM, Strain/Indicator: TA100, Metabolic Activation: RAT, LIVER, S-9, AROCLOR 1254, Method: STANDARD PLATE", "result": "inactive; negative"},
      {"measurement": "mutagenic call", "setting": "Test System: AMES SALMONELLA TYPHIMURIUM, Strain/Indicator: TA1535, Metabolic Activation: NONE, Method: STANDARD PLATE", "result": "inactive; negative"},
      {"measurement": "mutagenic call", "setting": "Test System: AMES SALMONELLA TYPHIMURIUM, Strain/Indicator: TA1535, Metabolic Activation: S-9, Method: STANDARD PLATE", "result": "inactive; negative"},
      {"measurement": "mutagenic call", "setting": "Test System: CHINESE HAMSTER V-79, Strain/Indicator: SP5 V-79 (HPRT)/6-THIOGUANINE, Metabolic Activation: NONE, Method: STANDARD PLATE", "result": "inactive; negative"},
      {"measurement": "mutagenic call", "setting": "Test System: CHINESE HAMSTER V-79, Strain/Indicator: SPD8 V-79 (HPRT)/6-THIOGUANINE, Metabolic Activation: NONE, Method: STANDARD PLATE", "result": "active; positive"},
      {"measurement": "mutagenic call", "setting": "Test System: CHINESE HAMSTER V-79 CELLS, Strain/Indicator: V-79 CELLS (HPRT)/6-THIOGUANINE, Metabolic Activation: NONE, Method: PREINCUBATION", "result": "inactive; negative"},
      {"measurement": "mutagenic call", "setting": "Test System: Chinese hamster lung cells, Strain/Indicator: V-79/HPRT/6-Thioguanidine, Metabolic Activation: None, Method: Standard Plate", "result": "active; positive"},
      {"measurement": "mutagenic call", "setting": "Test System: E. COLI, Strain/Indicator: WP2 UVRA, Metabolic Activation: NONE, Method: SPOT TEST", "result": "active; positive"},
      {"measurement": "mutagenic call", "setting": "Test System: E. COLI, Strain/Indicator: WP2 UVRA, Metabolic Activation: NONE, Method: STANDARD PLATE", "result": "active; positive"},
      {"measurement": "mutagenic call", "setting": "Test System: Rat lymphocytes, Strain/Indicator: Kumin/Male/HPRT/6-Thioguanidine, Metabolic Activation: None, Method: Intraperitoneal injection, blood collection 1, 6, and 12 d later", "result": "active; positive"},
      {"measurement": "mutagenic call", "setting": "Test System: UDS HAMSTER TRACHEAL EPITHELIAL CELLS, Strain/Indicator: THY INCORP (NON-S-PHASE), Metabolic Activation: NONE, Method: AUTORADIOGRAPHY", "result": "inactive; negative"},
      {"measurement": "mutagenic call", "setting": "Test System: UDS RAT TRACHEAL EPITHELIAL CELLS, Strain/Indicator: THY INCORP (NON-S-PHASE), Metabolic Activation: NONE, Method: AUTORADIOGRAPHY", "result": "active; positive"}
    ]}
  ]
}
